{"source": "paper PMC6917776", "about": "“Discovery of a chemical probe for PRDM9” (Nature Communications, 2019)", "format_in_all_cases": "cell-based", "key": {"Opiate µ receptor (MOR)": {"target": "T1, Opiate µ receptor (MOR) (Homo sapiens, UniProt P35372)", "T1 construct": "NIMH Psychoactive Drug Screening Program, University of North Carolina at Chapel Hill", "T1 sequence (P35372 whole entry)": "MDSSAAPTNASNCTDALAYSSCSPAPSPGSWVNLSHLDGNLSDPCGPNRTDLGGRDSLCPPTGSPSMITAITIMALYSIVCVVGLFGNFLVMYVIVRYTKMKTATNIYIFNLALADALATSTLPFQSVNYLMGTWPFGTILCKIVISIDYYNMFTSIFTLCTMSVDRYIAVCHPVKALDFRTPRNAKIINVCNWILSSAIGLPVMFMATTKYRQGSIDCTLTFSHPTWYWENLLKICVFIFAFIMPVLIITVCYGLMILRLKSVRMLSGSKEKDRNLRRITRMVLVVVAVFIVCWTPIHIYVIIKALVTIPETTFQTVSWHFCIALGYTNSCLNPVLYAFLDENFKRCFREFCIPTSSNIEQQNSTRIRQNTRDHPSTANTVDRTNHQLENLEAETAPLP", "assay": "GPCR functional activity, GloSensor assay (agonist and antagonist mode)", "details": "for MOR Gi Agonist, raw signal: replicates 1-3; for MOR Tango Antagonist, raw signal: replicates 1-4", "text": "(§1) Supplementary Figure 5. Assessment of GPCR functional activity. […]\n(§2) profiles were generously provided by the National Institute of Mental Health’s (NIMH)\n(§3) Psychoactive Drug Screening Program, (Contract # HHSN-271-2013-00017-C) directed by B.L.\n(§4) Roth, University of North Carolina at Chapel Hill and Project Officer J. Driscoll at NIMH,\n(§5) Bethesda, Maryland, USA. Further details available at https://pdspdb.unc.edu/pdspWeb/.\n(§6) MOR stands for “Opiate µ receptor”. […]\n(§7) […] Source data are provided as a"}, "Adrenergic α2B": {"target": "T2, Adrenergic α2B (Homo sapiens, UniProt P18089)", "T2 construct": "NIMH Psychoactive Drug Screening Program, University of North Carolina at Chapel Hill", "T2 sequence (P18089 whole entry)": "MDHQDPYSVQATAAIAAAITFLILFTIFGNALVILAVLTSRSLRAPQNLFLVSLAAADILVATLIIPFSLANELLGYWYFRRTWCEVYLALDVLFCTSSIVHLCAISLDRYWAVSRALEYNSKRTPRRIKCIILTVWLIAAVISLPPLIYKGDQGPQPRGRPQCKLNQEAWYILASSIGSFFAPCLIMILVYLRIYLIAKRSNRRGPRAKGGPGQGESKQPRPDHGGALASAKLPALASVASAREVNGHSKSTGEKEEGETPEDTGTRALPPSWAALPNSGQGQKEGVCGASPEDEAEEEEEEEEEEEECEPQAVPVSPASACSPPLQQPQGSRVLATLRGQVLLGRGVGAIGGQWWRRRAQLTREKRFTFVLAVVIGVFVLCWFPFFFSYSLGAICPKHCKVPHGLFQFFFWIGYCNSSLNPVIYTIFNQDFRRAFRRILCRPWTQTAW", "assay": "GPCR functional activity, GloSensor assay (agonist and antagonist mode)", "text": "as §1, §2, §3, §4, §5, §6, §7"}, "MCF7 cells": {"tested_on": "MCF7 cells", "assay": "Cell growth, IncuCyte ZOOM cell number", "details": "for Cell growth (Cell#): MCF7, 5 day treatment, technical replicates", "method": "HEK293T or MCF7 cells were seeded on 96-well plates and the following day treated with compounds for indicated time. Cell number was determined with Vybrant® DyeCycle™ Green using IncuCyte™ ZOOM live cell imaging device (Essen Bioscence) and analyzed with IncuCyte™ ZOOM (2015A) software.\n(top graphs) and MCF7 cells (bottom graph). Cells were treated with compounds for 2 and 4 days or 5 days in case of MCF7. Cell number was measured using IncuCyte™ ZOOM live cell imaging device. The results are MEAN +/- SEM, n=3 (technical replicates). Source data are provided as a Source Data file.\n(1 picture or pasted object on this page, not shown here)"}}, "note": "“And” between values parts separate entries of the source, which are not always exact repeats. Equal entries are not always repeated."}
{"smiles": "COc1cc(OC)cc(-c2noc(N3CCN(C)C4(CCN(c5ccnc(C)c5)CC4)C3)n2)c1", "note": "[MRK-740]", "values": [{"measurement": "Functional activity (in words)", "setting": "Opiate µ receptor (MOR); agonist and antagonist mode", "result": "some potential agonistic activity"}, {"measurement": "MOR Gi Agonist, raw signal", "setting": "Opiate µ receptor (MOR); log[MRK-740] -4.52", "result": "523.998 and 475.715 and 479.854"}, {"measurement": "MOR Tango Antagonist, raw signal", "setting": "Opiate µ receptor (MOR); log[MRK-740] -4.52", "result": "6964.63 and 7700.23 and 6817.3 and 8343.47"}, {"measurement": "MOR Gi Agonist, raw signal", "setting": "Opiate µ receptor (MOR); log[MRK-740] -5", "result": "470.197 and 394.324 and 410.878"}, {"measurement": "MOR Tango Antagonist, raw signal", "setting": "Opiate µ receptor (MOR); log[MRK-740] -5", "result": "5111.95 and 4601.78 and 6359.89 and 4362.1"}, {"measurement": "MOR Gi Agonist, raw signal", "setting": "Opiate µ receptor (MOR); log[MRK-740] -5.52", "result": "427.432 and 384.668 and 477.095"}, {"measurement": "MOR Tango Antagonist, raw signal", "setting": "Opiate µ receptor (MOR); log[MRK-740] -5.52", "result": "5940.98 and 5705.68 and 7225.22 and 4368.69"}, {"measurement": "MOR Gi Agonist, raw signal", "setting": "Opiate µ receptor (MOR); log[MRK-740] -6", "result": "441.227 and 430.191 and 452.263"}, {"measurement": "MOR Tango Antagonist, raw signal", "setting": "Opiate µ receptor (MOR); log[MRK-740] -6", "result": "5577.04 and 4612.78 and 4219.16 and 5663.9"}, {"measurement": "MOR Gi Agonist, raw signal", "setting": "Opiate µ receptor (MOR); log[MRK-740] -6.52", "result": "489.51 and 460.54 and 466.058"}, {"measurement": "MOR Tango Antagonist, raw signal", "setting": "Opiate µ receptor (MOR); log[MRK-740] -6.52", "result": "4965.72 and 6716.14 and 4770.01 and 6856.88"}, {"measurement": "MOR Gi Agonist, raw signal", "setting": "Opiate µ receptor (MOR); log[MRK-740] -7", "result": "347.421 and 472.956 and 397.083"}, {"measurement": "MOR Tango Antagonist, raw signal", "setting": "Opiate µ receptor (MOR); log[MRK-740] -7", "result": "4544.61 and 3827.75 and 5625.42 and 6334.6"}, {"measurement": "MOR Gi Agonist, raw signal", "setting": "Opiate µ receptor (MOR); log[MRK-740] -7.52", "result": "452.263 and 417.776 and 391.565"}, {"measurement": "MOR Tango Antagonist, raw signal", "setting": "Opiate µ receptor (MOR); log[MRK-740] -7.52", "result": "9293.5 and 6501.73 and 7215.33 and 6591.89"}, {"measurement": "MOR Gi Agonist, raw signal", "setting": "Opiate µ receptor (MOR); log[MRK-740] -8", "result": "452.263 and 390.186 and 408.119"}, {"measurement": "MOR Tango Antagonist, raw signal", "setting": "Opiate µ receptor (MOR); log[MRK-740] -8", "result": "5778.25 and 5276.87 and 5467.09 and 6480.84"}, {"measurement": "MOR Gi Agonist, raw signal", "setting": "Opiate µ receptor (MOR); log[MRK-740] -8.52", "result": "394.631 and 390.374 and 448.545"}, {"measurement": "MOR Tango Antagonist, raw signal", "setting": "Opiate µ receptor (MOR); log[MRK-740] -8.52", "result": "5605.48 and 3120.04 and 6717.48 and 4672.02"}, {"measurement": "MOR Gi Agonist, raw signal", "setting": "Opiate µ receptor (MOR); log[MRK-740] -9", "result": "413.075 and 366.255 and 451.383"}, {"measurement": "MOR Tango Antagonist, raw signal", "setting": "Opiate µ receptor (MOR); log[MRK-740] -9", "result": "3692.19 and 5665.93 and 3690.78 and 6270.43"}, {"measurement": "MOR Gi Agonist, raw signal", "setting": "Opiate µ receptor (MOR); log[MRK-740] -9.52", "result": "424.425 and 437.195 and 438.613"}, {"measurement": "MOR Tango Antagonist, raw signal", "setting": "Opiate µ receptor (MOR); log[MRK-740] -9.52", "result": "5109.22 and 7289.66 and 4705.76 and 4478.02"}, {"measurement": "MOR Gi Agonist, raw signal", "setting": "Opiate µ receptor (MOR); log[MRK-740] -10", "result": "492.528 and 401.725 and 449.964"}, {"measurement": "MOR Tango Antagonist, raw signal", "setting": "Opiate µ receptor (MOR); log[MRK-740] -10", "result": "3780.75 and 4352.9 and 3641.58 and 3605.03"}, {"measurement": "MOR Gi Agonist, raw signal", "setting": "Opiate µ receptor (MOR); log[MRK-740] -10.52", "result": "408.819 and 508.135 and 464.152"}, {"measurement": "MOR Tango Antagonist, raw signal", "setting": "Opiate µ receptor (MOR); log[MRK-740] -10.52", "result": "4105.49 and 4174.37 and 7219.37 and 6121.41"}, {"measurement": "MOR Gi Agonist, raw signal", "setting": "Opiate µ receptor (MOR); log[MRK-740] -11", "result": "516.647 and 510.972 and 540.767"}, {"measurement": "MOR Tango Antagonist, raw signal", "setting": "Opiate µ receptor (MOR); log[MRK-740] -11", "result": "4295.27 and 3517.87 and 4659.37 and 5872.58"}, {"measurement": "MOR Gi Agonist, raw signal", "setting": "Opiate µ receptor (MOR); log[MRK-740] -11.52", "result": "627.314 and 488.271 and 566.306"}, {"measurement": "MOR Tango Antagonist, raw signal", "setting": "Opiate µ receptor (MOR); log[MRK-740] -11.52", "result": "8307.51 and 6114.38 and 4948.96 and 5192.17"}, {"measurement": "MOR Gi Agonist, raw signal", "setting": "Opiate µ receptor (MOR); log[MRK-740] -12", "result": "684.066 and 560.63 and 516.647"}, {"measurement": "MOR Tango Antagonist, raw signal", "setting": "Opiate µ receptor (MOR); log[MRK-740] -12", "result": "4510.35 and 4657.96 and 5814.94 and 6055.34"}, {"measurement": "Functional activity (in words)", "setting": "Adrenergic α2B", "result": "no functional activity"}, {"measurement": "MCF7 cell viability (in words)", "setting": "MCF7 cells; 10 µM, 5-day proliferation assay", "result": "minimal impact on MCF7 cell viability"}, {"measurement": "Cell growth (Cell#)", "setting": "MCF7 cells; 0.3 µM", "result": "106.53 % control and 74.2747 % control and 75.9554 % control"}, {"measurement": "Cell growth (Cell#)", "setting": "MCF7 cells; 1 µM", "result": "111.892 % control and 99.8066 % control and 82.4385 % control"}, {"measurement": "Cell growth (Cell#)", "setting": "MCF7 cells; 3 µM", "result": "103.969 % control and 69.7125 % control and 102.608 % control"}, {"measurement": "Cell growth (Cell#)", "setting": "MCF7 cells; 10 µM", "result": "66.6711 % control and 77.6362 % control and 64.0299 % control"}, {"measurement": "Cell growth (Cell#)", "setting": "MCF7 cells; 20 µM", "result": "36.7371 % control and 35.4566 % control and 42.0196 % control"}]}
